Assay results reported in patent publication US4256729A, “N,N'-Bis-(2,3-dihydroxypr opyl)-2,4,6-triiodo-5-(2-keto-L-gulonamido)isophthalamide and radiological compositions containing same” (Mallinckrodt, Inc., priority 1979, dated 1981).
Read-outs that look alike come from different tables or passages of the source.

Tests used:
[1] = Stability in aqueous solution by tlc and lc analysis; type: physicochemical; settings: Method I product
Description: (§1) The product was dissolved in water (sterile water for injection, 1 liter). The solution was evaporated to about 800 ml under reduced pressure at 55° and treated with active charcoal (Darco G-60, 7.0 g) at room temperature overnight. The solution was filtered (first through a Whatman #4 filter paper and then through a Millipore 0.22 μ filter paper), and the clear filtrate was evaporated under reduced pressure at 50°-60° to give a white glassy solid. The product, which was dried under vacuum at 50°-60° for 5 hours, weighed 53.0 g (60% yield). The compound softens at 190°-195° and decomposes above 220°. […] Nmr and ir data are consistent with the assigned structure IX. Elemental analysis: Calcd. for C20 H26 I3 N3 O12 : C, 27.26; H, 2.97; I, 43.21; N, 4.77; Found: C, 26.92; H, 3.15; I, 42.92; N, 4.40.

[2] = Solubility in water; type: physicochemical
Description: as §1
2. Solubility: ≥100% w/v.

[3] = test system: Sprague Dawley rats; test: Acute Intracisternal Toxicity in Rats; settings: intracisternal, 444 mg I/ml; two day observation; 95% limits 582-951
Description: (§2) The following pharmacological studies were conducted on N,N'-bis-(2,3-dihydroxypropyl)-2,4,6-triiodo-5-(2-keto-L-gulonamido)isophthalamide prepared by Method II (PRODUCT).
(§3) The technique described by Melartin et al. (Invest. Radiol. 5: 13-21, 1970) was utilized to evaluate lethal effects of a solution of the PRODUCT after injection into cerebrospinal fluid at the cisterna magna. Young adult male and female Sprague Dawley rats were used. After dosing, the animals were housed individually and observed for immediate reactions and periodically for a two day observation period.

[4] = in vivo; settings: rat, in vivo
Description: as §2, §3

[5] = test system: dogs; test: Acute intracisternal Neurotoxicity in Dogs; type: in vivo; settings: dosage range 200-244 mg I/kg, constant 0.5 ml/kg volume dose
Description: Adult dogs of either sex were employed for this procedure and were briefly anesthetized with thiopentol sodium during the injection of a solution of the compound. The PRODUCT was administered into cerebrospinal fluid at the cisterna magna at varying concentrations but at a constant 0.5 ml/kg volume dose. Animals were thereafter observed for neurotoxicity with the following results.

[6] = test system: Swiss mice; test: Acute Intraveneous Toxicity in Mice; settings: i.v., 1 ml/min, 400 mg I/ml; seven day observation; 95% limits 18,161-20,510
Description: as §2
(§4) A solution of the PRODUCT was injected into the lateral tail vein of young adult male and female Swiss mice at a rate of 1 ml/min.

[7] = in vivo; settings: mouse, in vivo, iv
Description: as §2, §4

[8] = test system: cardiovascular and renal excretory systems; test: Radiographic observations in mouse (whole body radiographs after i.v. injection); type: in vivo; settings: male mouse, pentobarbital anesthetized; 10,000 mg I/kg i.v. (28% I solution), 1/2 ml/minute; immediately after administration; Method I product
Description: A male mouse (20 g) was anesthetized with sodium pentobarbital (60 mg/kg, i.p.; Diabutal®, Diamond Laboratories).

[9] = test system: cisterna magna, basal cisterns, and cervical subarachnoid space; test: Radiographic observations in rat (lateral radiographs of head and thorax after intracisternal injection); type: in vivo; settings: male rat, pentobarbital anesthetized; 140 mg I/kg intracisternally (28% I solution); immediately and 3 minutes after administration; Method I product
Description: A pentobarbital anesthetized male rat received 140 mg I/kg of the N,N'-bis-(2,3-dihydroxypropyl)-2,4,6-triiodo-5-(2-keto-L-gulonamido)isophthalamide prepared by Method I, (28% I solution) intracisternally.

[10] = test system: Swiss mice; test: Acute Intracerebral Toxicity in Mice; settings: intracerebral, 250-400 mg I/ml; seven day observation; 95% limits 1,203-1,772
Description: as §2
(§5) Employing a slightly modified version of the techique developed by Haley and McCormick (Brit. J. Pharmacol. 12: 12-15, 1957), young adult male and female Swiss mice received injections of a solution of the PRODUCT directly into lateral ventricles and brain tissue.

[11] = in vivo; settings: mouse, in vivo, icv or intrathecal
Description: as §2, §5

## O=C(Nc1c(I)c(C(=O)NCC(O)CO)c(I)c(C(=O)NCC(O)CO)c1I)C(=O)[C@@H](O)[C@H](O)[C@@H](O)CO (stereo partly drawn) [IX, N,N'-Bis-(2,3-dihydroxypropyl)-2,4,6-triiodo-5-(2-keto-L-gulonamido)isophthalamide]
[1]
  stability in aqueous solution: stable in aqueous solution
[2]; Method II product
  solubility: ≥ 100 % w/v
[2]; water, Method I product, read-out: solubility in water
  solubility: ≥ 1000 mg/mL
[3]
  LD50 /(95% Confidence Limits): 744 mg I/kg
[4]
  LD50 at 48 h: 1720 mg/kg
[5]
  Minimum Convulsion Dose: > 244 mg I/kg
[6]
  LD50 /(95% Confidence Limits): 19,300 mg I/kg
[7]
  LD50 at 168 h: 44700 mg/kg
[8]
  opacification on whole body radiographs: opacification of the cardiovascular and renal excretory systems
[9]
  visualization on lateral radiographs of head and thorax: good visualization of the cisterna magna, basal cisterns, and cervical subarachnoid space
[10]
  LD50 /(95% Confidence Limits): 1,460 mg I/kg
[11]
  LD50 at 168 h: 3380 mg/kg
